# Measurements published in patent publication US7049314B2, “Cyclopentyl indole derivatives” (Bristol-Myers Squibb Company, priority 2002, dated 2006).
# Like-named read-outs stand apart in the source and are kept apart here.
# Tests used:
# [1] = biological target: T1, human serotonin transporters (Homo sapiens, UniProt P31645); experiment: Serotonin Transporter Binding Assay ([3H]-citalopram displacement, HEK-hSERT cell membranes)
# T1 construct: expressed in transfected cells
# Description: HEK-293 cells that stably express human serotonin transporters (HEK-hSERT cells) were grown at 37° C. in 5% CO2 as a monolayer in medium consisting of EMEM supplemented with 10% fetal bovine serum and G418 sulfate (500 μg/mL). To prepare membranes for radioligand binding experiments, cells were rinsed twice with phosphate-buffered saline (138 mM NaCl, 4.1 mM KCl, 5.1 mM Na2PO4, 1.5 mM […], 11.1 mM glucose, pH 7.4). Cells were transferred from plates to polypropylene tubes (16×100 mm), centrifuged at 1,200×g for 5 min and were frozen at −80° C. until assay. Following centrifugation, pellets were resuspended by homogenization in buffer consisting of 50 mM Tris (pH 7.7 at 25° C.), 120 mM NaCl and 5 mM KCl and then centrifuged at 32,000×g for 10 min. Following centrifugation, supernatants were discarded and pellets were resuspended in buffer consisting of 50 mM Tris (pH 7.4 at 25° C.), 150 mM NaCl and 5 mM KCl. Membrane homogenates (200 μl/plate) were incubated with 1 nM [^3H]-citalopram (specific activity=85 Ci/mMol) and increasing concentrations of test compounds for 1 hr at 25° C. in a total volume of 250 μl. The assay buffer consisted of 50 mM Tris (pH 7.4 at 25° C.), 120 mM NaCl and 5 mM KCl (pH 7.4 with conc. HCl). Plates were incubated for 1 hr at 25° C., then filtered through 0.5% PEI treated Whatman GF/B filters using a Brandel cell harvester. Filters were washed three times with 3 mL of ice-cold tris wash buffer. Non-specific binding was defined with 10 μM fluoxetine. Amount of radioligand bound in the presence and absence of competitor was analyzed by plotting (−)log drug concentration versus the amount of radioligand specifically bound. The midpoint of the displacement curve (IC50, nM), signifies the potency. Ki values were calculated using the method of Cheng and Prusoff (1973).
# [2] = biological target: T2, human norepinephrine transporters (Homo sapiens, UniProt P23975); experiment: Norepinephrine Transporter Binding Assay ([3H]-nisoxetine displacement, hNET cell membranes); conditions: 2.7 nM [3H]-nisoxetine, 1 hr at 4° C., read-out: NE Reuptake (binding Ki)
# T2 construct: host or cells: MDCK cells (also 'HEK-hNET cells'), membrane homogenates
# T2 sequence (P23975 whole entry): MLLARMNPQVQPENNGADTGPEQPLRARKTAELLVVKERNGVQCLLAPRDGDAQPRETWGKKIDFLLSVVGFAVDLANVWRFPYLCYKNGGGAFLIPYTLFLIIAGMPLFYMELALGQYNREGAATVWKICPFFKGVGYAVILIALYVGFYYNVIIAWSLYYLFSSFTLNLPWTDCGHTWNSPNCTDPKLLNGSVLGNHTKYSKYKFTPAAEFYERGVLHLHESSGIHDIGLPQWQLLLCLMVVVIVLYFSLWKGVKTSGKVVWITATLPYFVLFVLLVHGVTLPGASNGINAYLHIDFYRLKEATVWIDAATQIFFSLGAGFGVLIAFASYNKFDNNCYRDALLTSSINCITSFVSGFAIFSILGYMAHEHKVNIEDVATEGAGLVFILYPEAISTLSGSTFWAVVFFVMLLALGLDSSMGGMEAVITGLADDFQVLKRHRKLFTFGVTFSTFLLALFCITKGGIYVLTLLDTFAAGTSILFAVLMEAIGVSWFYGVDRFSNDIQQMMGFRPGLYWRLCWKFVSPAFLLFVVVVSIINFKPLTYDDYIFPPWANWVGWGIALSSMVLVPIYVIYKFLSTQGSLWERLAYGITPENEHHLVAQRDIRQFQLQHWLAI
# Description: MDCK cells that stably express human norepinephrine transporters (HEK-hNET cells) were supplied by Receptor Biology, Inc. Pellets were resuspended by homogenization in buffer consisting of 50 mM Tris (pH 7.4 at 25° C.), 120 mM NaCl and 5 mM KCl. Membrane homogenates (200 μl/well, 8 ug protein) were incubated with 2.7 nM [^3H]-nisoxetine (specific activity=80 Ci/mMol) and increasing concentrations of test compounds for 1 hr at 4° C. in a total volume of 250 μl. The assay buffer consisted of 50 mM Tris (pH 7.4 at 25° C.), 120 mM NaCl and 5 mM KCl (pH 7.4 with conc. HCl). Plates were incubated for 1 hr at 4° C., then filtered through 0.5% PEI treated Whatman GF/B filters using a Brandel cell harvester. Filters were washed three times with 3 mL of ice-cold tris wash buffer. Non-specific binding was defined with 10 μM desipramine. Amount of radioligand bound in the presence and absence of competitor was analyzed by plotting (−)log drug concentration versus the amount of radioligand specifically bound. The midpoint of the displacement curve (IC50, nM), signifies the potency. Ki values were calculated using the method of Cheng and Prusoff (1973).
# [3] = HEK-hSERT membranes, 1 nM [3H]-citalopram, 1 hr at 25° C., read-out: SERT (binding Ki)
# T1 sequence (P31645 whole entry): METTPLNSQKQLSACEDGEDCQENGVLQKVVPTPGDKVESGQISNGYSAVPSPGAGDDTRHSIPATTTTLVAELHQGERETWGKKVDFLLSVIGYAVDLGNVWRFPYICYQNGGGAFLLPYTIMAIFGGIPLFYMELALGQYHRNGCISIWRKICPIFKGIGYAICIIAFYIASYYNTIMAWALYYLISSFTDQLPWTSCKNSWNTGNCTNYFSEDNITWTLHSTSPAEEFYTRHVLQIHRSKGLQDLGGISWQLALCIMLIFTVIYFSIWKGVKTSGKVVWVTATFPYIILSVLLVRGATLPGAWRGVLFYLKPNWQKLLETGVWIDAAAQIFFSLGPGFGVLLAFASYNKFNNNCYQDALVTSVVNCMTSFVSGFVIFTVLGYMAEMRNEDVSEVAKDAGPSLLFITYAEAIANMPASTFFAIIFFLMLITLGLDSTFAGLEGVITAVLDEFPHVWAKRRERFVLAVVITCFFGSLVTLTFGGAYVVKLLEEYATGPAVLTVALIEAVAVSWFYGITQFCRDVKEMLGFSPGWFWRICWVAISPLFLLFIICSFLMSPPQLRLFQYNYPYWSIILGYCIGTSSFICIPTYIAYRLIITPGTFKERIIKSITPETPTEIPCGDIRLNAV
Compound,Ki [1] [nM],Ki [2] [nM],"Ki [1, 3] [nM]"
"Cn1cc(C2CCC(N3CCCC3)C2)c2cc(C#N)ccc21 (centres unmarked) [Compound 24, 1-Methyl-3-(3-pyrrolidin-1-yl-cyclopentyl)-1H-indole-5-carbonitrile]",1 to 10,> 1000,
"Cn1cc(C2CCC(N3CCCCC3)C2)c2cc(C#N)ccc21 (centres unmarked) [Compound 25, 1-Methyl-3-(3-piperidin-1-yl-cyclopentyl)-1H-indole-5-carbonitrile]",,> 1000,< 1
"Cn1cc(C2CCC(N3CCOCC3)C2)c2cc(C#N)ccc21 (centres unmarked) [Compound 26, 1-Methyl-3-(3-morpholin-4-yl-cyclopentyl)-1H-indole-5-carbonitrile]",,> 1000,< 1
"CN(Cc1ccccc1)C1CCC(c2cn(C)c3ccc(C#N)cc23)C1 (centres unmarked) [Compound 27, 3-[3-(Benzyl-methyl-amino)-cyclopentyl]-1-methyl-1H-indole-5-carbonitrile]",,> 1000,< 1
"CN(CCc1ccccc1)C1CCC(c2cn(C)c3ccc(C#N)cc23)C1 (centres unmarked) [Compound 28, 1-Methyl-3-[3-(methyl-phenethyl-amino)-cyclopentyl]-1H-indole-5-carbonitrile]",,100 to 1000,1 to 10
"CCCNC1CCC(c2cn(C)c3ccc(C#N)cc23)C1 (centres unmarked) [Compound 29, 1-Methyl-3-(3-propylamino-cyclopentyl)-1H-indole-5-carbonitrile]",< 1,> 1000,
"CCCN(CCC)C1CCC(c2cn(C)c3ccc(C#N)cc23)C1 (centres unmarked) [Compound 30, 3-(3-Dipropylamino-cyclopentyl)-1-methyl-1H-indole-5-carbonitrile]",,> 1000,< 1
"CCn1cc(C2CCC(N(C)Cc3ccccc3)C2)c2cc(C#N)ccc21 (centres unmarked) [Compound 31, 3-[3-(Benzyl-methyl-amino)-cyclopentyl]-1-ethyl-1H-indole-5-carbonitrile]",,> 1000,1 to 10
"CCn1cc(C2CCC(N(C)C)C2)c2cc(C#N)ccc21 (centres unmarked) [Compound 32, 3-(3-Dimethylamino-cyclopentyl)-1-ethyl-1H-indole-5-carbonitrile]",,> 1000,< 1
CN(C)C1CCC(c2c[nH]c3ccc(F)cc23)C1 (centres unmarked) [Compound 33],,> 1000,< 1
"CCN(C)C1CCC(c2c[nH]c3ccc(F)cc23)C1 (centres unmarked) [Compound 34, Ethyl-[3-(5-fluoro-1H-indol-3-yl)cyclopentyl]-methyl-amine]",1 to 10,> 1000,
"CCN(CC)C1CCC(c2c[nH]c3ccc(F)cc23)C1 (centres unmarked) [Compound 35, Diethyl-[3-(5-fluoro-1H-indol-3-yl)-cyclopentyl]-amine]",5,> 1000,
Fc1ccc2[nH]cc(C3CCC(N4CCCC4)C3)c2c1 (centres unmarked) [Compound 36],1 to 10,> 1000,
"CN(C)[C@@H]1CC[C@H](c2c[nH]c3ccc(C#N)cc23)C1 [Compound 48, (1S,3R)-3-(3-dimethylaminocyclopentyl)-1H-indole-5-carbonitrile]",,> 1000,< 1
"CN(C)[C@H]1CC[C@H](c2c[nH]c3ccc(C#N)cc23)C1 [Compound 49, (1S,3S)-3-(3-dimethylaminocyclopentyl)-1H-indole-5-carbonitrile]",,> 1000,< 1
"CN(C)[C@H]1CC[C@@H](c2c[nH]c3ccc(C#N)cc23)C1 [Compound 50, (1R,3S)-3-(3-dimethylaminocyclopentyl)-1H-indole-5-carbonitrile]",,> 1000,< 1
"CN(C)[C@@H]1CC[C@@H](c2c[nH]c3ccc(C#N)cc23)C1 [Compound 51, (1R,3R)-3-(3-dimethylaminocyclopentyl)-1H-indole-5-carbonitrile]",,> 1000,< 1
"CN(C)[C@H]1CC[C@H](c2c[nH]c3ccc(F)cc23)C1 [Compound 52, (1S,3S)-3-(5-fluoro-1H-indol-3-yl)-cyclopentyl-dimethylamine]",,> 1000,1 to 10
"CN(C)[C@@H]1CC[C@H](c2c[nH]c3ccc(F)cc23)C1 [Compound 53, (1R,3S)-3-(5-fluoro-1H-indol-3-yl)-cyclopentyl-dimethylamine]",,> 1000,< 1
"CN(C)[C@@H]1CC[C@@H](c2c[nH]c3ccc(F)cc23)C1 [Compound 54, (1R,3R)-3-(5-fluoro-1H-indol-3-yl)-cyclopentyl-dimethylamine]",,> 1000,1 to 10
"CN(C)[C@H]1CC[C@@H](c2c[nH]c3ccc(F)cc23)C1 [Compound 55, (1S,3R)-3-(5-fluoro-1H-indol-3-yl)-cyclopentyl-dimethylamine]",,> 1000,1 to 10
"CCn1cc([C@H]2CC[C@@H](N(C)C)C2)c2cc(C#N)ccc21 [Compound 56, (1S,3R)-3-(3-Dimethylamino-cyclopentyl)-1-ethyl-1H-indole-5-carbonitrile]",,> 1000,< 1
"CCn1cc([C@H]2CC[C@H](N(C)C)C2)c2cc(C#N)ccc21 [Compound 57, (1S,3S)-3-(3-Dimethylamino-cyclopentyl)-1-ethyl-1H-indole-5-carbonitrile]",,> 1000,1 to 10
"CCn1cc([C@@H]2CC[C@H](N(C)C)C2)c2cc(C#N)ccc21 [Compound 58, (1R,3S)-3-(3-Dimethylamino-cyclopentyl)-1-ethyl-1H-indole-5-carbonitrile]",,> 1000,< 1
"CCn1cc([C@@H]2CC[C@@H](N(C)C)C2)c2cc(C#N)ccc21 [Compound 59, (1R,3R)-3-(3-Dimethylamino-cyclopentyl)-1-ethyl-1H-indole-5-carbonitrile]",,> 1000,1 to 10
